Molecules are shown by their SMILES. Bounds are passed on as bounds.

Experiment [1] deals with HT-29 cells (colorectal adenocarcinoma). Nature of the experiment: Inhibition of cancer cell proliferation, HT-29 (CellTiterGlo, 72 hours). In kind it is cell-based. The conditions noted are these: Homo sapiens. A digest of the protocol: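 Proliferation over 72 h at 37° C was read by CellTiterGlo luminescence, translated to cell counts with a cell-density standard curve (390–50,000 cells). Compound added as 3-fold dilutions from a 5,000 nM two-fold stock to 3000 seeded HT-29 cells; GI50 from percent inhibition relative to untreated wells.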

For experiment [2], the target named is T1, MEK1 activated ERK1 (Homo sapiens, UniProt P27361).
T1 construct: purchased Millipore (Billerica, Mass.) 14-439-K
Nature of the experiment: Omnia continuous-read kinase assay for potency against MEK1 activated ERK1. In kind it is biochemical. To be noted: MEK1 activated ERK1, ATP at KM; read-out: ERK1 Omnia WT ATP KM IC50. A digest of the protocol:
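Apparent IC50 came from initial reaction slopes (RFU vs time) plotted against log inhibitor with a variable-slope fit. Reactions were started with ERK1 (4 nM final) added to 50 μM ATP, roughly at its appKM, and 10 μM Sox-conjugated ST17 peptide in 20 mM Tris pH 7.5, 5 mM MgCl2. Fluorescence was monitored every 71 seconds.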

T1 sequence (P27361 whole entry): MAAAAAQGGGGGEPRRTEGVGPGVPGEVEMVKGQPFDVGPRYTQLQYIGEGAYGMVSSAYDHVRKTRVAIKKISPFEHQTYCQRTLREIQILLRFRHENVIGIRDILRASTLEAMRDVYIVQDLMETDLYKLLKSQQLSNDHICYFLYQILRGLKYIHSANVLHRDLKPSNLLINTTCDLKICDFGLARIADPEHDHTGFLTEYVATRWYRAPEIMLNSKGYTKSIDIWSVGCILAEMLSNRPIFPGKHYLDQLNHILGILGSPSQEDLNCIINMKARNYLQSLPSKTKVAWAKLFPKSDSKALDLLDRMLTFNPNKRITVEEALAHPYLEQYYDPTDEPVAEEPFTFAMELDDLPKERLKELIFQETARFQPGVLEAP

Regarding `C=CC(=O)Nc1cc(OC)ccc1Nc1nc(Nc2cc(OC)nc(N3CCN(C)CC3)c2)ncc1C(F)(F)F` [Compound I-334, N-(5-methoxy-2-((2-((2-methoxy-6-(4-methylpiperazin-1-yl)pyridin-4-yl)amino)-5-(trifluoromethyl)pyrimidin-4-yl)amino)phenyl)acrylamide], the GI50 in experiment [1] is less than 100 nM.
For the compound `C=CC(=O)Nc1cc(C)ccc1Nc1nc(Nc2cc(N[C@H]3CC[C@@H](O)CC3)nc(OC)c2)ncc1C(F)(F)F` [Compound I-326, N-(2-((2-((2-((cis-4-hydroxycyclohexyl)amino)-6-methoxypyridin-4-yl)amino)-5-(trifluoromethyl)pyrimidin-4-yl)amino)-5-methylphenyl)acrylamide], the IC50 in experiment [2] was 101 to 500 nM.
`C=CC(=O)Nc1cc(C)ccc1Nc1nc(Nc2cc(OC)ccc2C)ncc1C(F)(F)F` [Compound I-341, N-(2-((2-((5-methoxy-2-methylphenyl)amino)-5-(trifluoromethyl)pyrimidin-4-yl)amino)-5-methylphenyl)acrylamide]: the IC50 in experiment [2] lay within 501 to 999 nM.
For the compound `C=CC(=O)Nc1ccccc1Nc1nc(Nc2cc(F)ccc2C)ncc1C(F)(F)F` [Compound I-285, N-(2-((2-((5-Fluoro-2-methylphenyl)amino)-5-(trifluoromethyl)pyrimidin-4-yl)amino)phenyl)acrylamide], the IC50 in experiment [2] lay within 501 to 999 nM.
In experiment [1], `C=CC(=O)Nc1ccccc1Nc1nc(Nc2cc(NCCOC)nc(OC)c2)ncc1C(F)(F)F` [Compound I-286, N-(2-((2-((2-Methoxy-6-((2-methoxyethyl)amino)pyridin-4-yl)amino)-5-(trifluoromethyl)pyrimidin-4-yl)amino)phenyl)acrylamide] had a GI50 of less than 100 nM.
In experiment [1], `C=CC(=O)Nc1ccccc1Nc1nc(Nc2cc(OC)nc(OC)c2)ncc1C(F)(F)F` [Compound I-95, N-(2-((2-((2,6-Dimethoxypyridin-4-yl)amino)-5-(trifluoromethyl)pyrimidin-4-yl)amino)phenyl)acrylamide] returned a concentration for 50% growth inhibition (GI50) of less than 100 nM.
For the compound `C=CC(=O)Nc1cc(C)ccc1Nc1nc(Nc2cc(OC)nc(N3CCOCC3)c2)ncc1C(F)(F)F` [Compound I-94, N-(2-((2-((2-Methoxy-6-morpholinopyridin-4-yl)amino)-5-(trifluoromethyl)pyrimidin-4-yl)amino)-5-methylphenyl)acrylamide], the IC50 in experiment [2] was 101 to 500 nM. Moreover, the GI50 in experiment [1] was less than 100 nM.
Take `C=CC(=O)Nc1cc(C)ccc1Nc1nc(Nc2cc(C)nc(OC)c2)ncc1C(F)(F)F` [Compound I-295, N-(2-((2-((2-methoxy-6-methylpyridin-4-yl)amino)-5-(trifluoromethyl)pyrimidin-4-yl)amino)-5-methylphenyl)acrylamide]: the IC50 in experiment [2] lay within 101 to 500 nM.
Compound `C=CC(=O)Nc1ccccc1Nc1nc(Nc2cc(OC)nc(N3CCS(=O)(=O)CC3)c2)ncc1C(F)(F)F` [Compound I-291, N-(2-((2-((2-(1,1-Dioxidothiomorpholino)-6-methoxypyridin-4-yl)amino)-5-(trifluoromethyl)pyrimidin-4-yl)amino)phenyl)acrylamide] displayed a GI50 in experiment [1] of less than 100 nM.
As for `C=CC(=O)Nc1ccccc1Nc1nc(N[C@H]2CCN(C(=O)CO)C2)ncc1C(F)(F)F` [Compound I-57, (S)—N-(2-((2-((1-(2-Hydroxyacetyl)pyrrolidin-3-yl)amino)-5-(trifluoromethyl)pyrimidin-4-yl)amino)phenyl)acrylamide], in experiment [2], the IC50 lay in the range of 101 to 500 nM. Besides, in experiment [1], the concentration for 50% growth inhibition (GI50) is 101 to 500 nM.
Turning to `C=CC(=O)Nc1cc(OC)ccc1Nc1nc(Nc2cc(OC)ncc2C)ncc1Cl` [Compound I-242, N-(2-((5-chloro-2-((2-methoxy-5-methylpyridin-4-yl)amino)pyrimidin-4-yl)amino)-5-methoxyphenyl)acrylamide], the GI50 in experiment [1] is less than 100 nM.
On to `C=CC(=O)Nc1ccccc1Nc1nc(Nc2cc(OC)cc(OC)c2)ncc1C(F)(F)F` [Compound I-338, N-(2-((2-((3,5-dimethoxyphenyl)amino)-5-(trifluoromethyl)pyrimidin-4-yl)amino)phenyl)acrylamide], for which, in experiment [2], the concentration for half-maximal inhibition (IC50) was 101 to 500 nM. For the same compound, the GI50 in experiment [1] is less than 100 nM.
Compound `C=CC(=O)Nc1ccccc1Nc1nc(Nc2cc(OC)nc(N3CCCC3)c2)ncc1C(F)(F)F` [Compound I-281, N-(2-((2-((2-Methoxy-6-(pyrrolidin-1-yl)pyridin-4-yl)amino)-5-(trifluoromethyl)pyrimidin-4-yl)amino)phenyl)acrylamide] had a GI50 in experiment [1] of less than 100 nM.
Same read-out and setting: then `C=CC(=O)Nc1cc(C)ccc1Nc1nc(Nc2cc(OC)ncc2C)ncc1C(F)(F)F` [Compound I-90, N-(2-((2-((2-Methoxy-5-methylpyridin-4-yl)amino)-5-(trifluoromethyl)pyrimidin-4-yl)amino)-5-methylphenyl)acrylamide], with 101 to 500 nM.
Regarding `C=CC(=O)Nc1ccccc1Nc1nc(N[C@H]2CCN(S(C)(=O)=O)C2)ncc1C(F)(F)F` [Compound I-58, (S)—N-(2-((2-((1-(Methylsulfonyl)pyrrolidin-3-yl)amino)-5-(trifluoromethyl)pyrimidin-4-yl)amino)phenyl)acrylamide], the IC50 in experiment [2] was 101 to 500 nM. The GI50 in experiment [1] is 101 to 500 nM.
Consider `C=CC(=O)Nc1ccccc1Nc1nc(Nc2cc(OC)nc(OCCOC)c2)ncc1C(F)(F)F` [Compound I-283, N-(2-((2-((2-Methoxy-6-(2-methoxyethoxyl)pyridin-4-yl)amino)-5-(trifluoromethyl)pyrimidin-4-yl)amino)phenyl)acrylamide], for which the GI50 in experiment [1] is less than 100 nM.
In experiment [1], `C=CC(=O)Nc1cc(C)ccc1Nc1nc(Nc2cc(OC)nc(N3CC(O)C3)c2)ncc1C(F)(F)F` [Compound I-328, N-(2-((2-((2-(3-hydroxyazetidin-1-yl)-6-methoxypyridin-4-yl)amino)-5-(trifluoromethyl)pyrimidin-4-yl)amino)-5-methylphenyl)acrylamide] registered a GI50 of less than 100 nM.
Turning to `C=CC(=O)Nc1cc(OC)ccc1Nc1nc(Nc2cc(OC)nc(N3CCN(CC)CC3)c2)ncc1C(F)(F)F` [Compound I-88, N-(2-((2-((2-(4-Ethylpiperazin-1-yl)-6-methoxypyridin-4-yl)amino)-5-(trifluoromethyl)pyrimidin-4-yl)amino)-5-methoxyphenyl)acrylamide], in experiment [1], the GI50 is less than 100 nM.
In experiment [1], `C=CC(=O)Nc1cc(C)ccc1Nc1nc(Nc2cc(OC)nc(N3CCN(C(C)=O)CC3)c2)ncc1Cl` [Compound I-296, N-(2-((2-((2-(4-acetylpiperazin-1-yl)-6-methoxypyridin-4-yl)amino)-5-chloropyrimidin-4-yl)amino)-5-methylphenyl)acrylamide] displayed a GI50 of less than 100 nM.
Take `C=CC(=O)Nc1cc(OC)ccc1Nc1nc(N[C@H]2CCCN(C(=O)CO)C2)ncc1C(F)(F)F` [Compound I-64, (S)—N-(2-((2-((1-(2-Hydroxyacetyl)piperidin-3-yl)amino)-5-(trifluoromethyl)pyrimidin-4-yl)amino)-5-methoxyphenyl)acrylamide]: the 50% growth inhibitory concentration (GI50) in experiment [1] was less than 100 nM.
For `C=CC(=O)Nc1cc(OC)ccc1Nc1nc(Nc2cc(OC)ncc2C)ncc1C(F)(F)F` [Compound I-284, N-(5-Methoxy-2-((2-((2-methoxy-5-methylpyridin-4-yl)amino)-5-(trifluoromethyl)pyrimidin-4-yl)amino)phenyl)acrylamide], the GI50 in experiment [1] lay in the range of 501 to 999 nM.
Still for that read-out and setting: then `C=CC(=O)Nc1cc(F)ccc1Nc1nc(Nc2cc(OC)ncc2C)ncc1C(F)(F)F` [Compound I-322, N-(5-fluoro-2-((2-((2-methoxy-5-methylpyridin-4-yl)amino)-5-(trifluoromethyl)pyrimidin-4-yl)amino)phenyl)acrylamide], with 101 to 500 nM; and `C=CC(=O)Nc1cc(OC)ccc1Nc1nc(Nc2cc(OC)nc(N3CCN(C(C)=O)CC3)c2)ncc1C(F)(F)F` [Compound I-91, N-(2-((2-((2-(4-Acetylpiperazin-1-yl)-6-methoxypyridin-4-yl)amino)-5-(trifluoromethyl)pyrimidin-4-yl)amino)-5-methoxyphenyl)acrylamide], with less than 100 nM; and `C=CC(=O)Nc1ccccc1Nc1nc(Nc2cc(OC)nc(N3CCN(C)CC3)c2)ncc1C(F)(F)F` [Compound I-324, N-(2-((2-((2-methoxy-6-(4-methylpiperazin-1-yl)pyridin-4-yl)amino)-5-(trifluoromethyl)pyrimidin-4-yl)amino)phenyl)acrylamide], with less than 100 nM.
`C=CC(=O)Nc1ccccc1Nc1nc(Nc2cc(N[C@H]3CC[C@@H](O)CC3)nc(OC)c2)ncc1C(F)(F)F` [Compound I-292]: in experiment [2], the IC50 was less than 100 nM.
In experiment [1], `C=CC(=O)Nc1cc(C)ccc1Nc1nc(Nc2cc(OC)cc(OC)c2)ncc1C(F)(F)F` [Compound I-339, N-(2-((2-((3,5-dimethoxyphenyl)amino)-5-(trifluoromethyl)pyrimidin-4-yl)amino)-5-methylphenyl)acrylamide] gave a GI50 of less than 100 nM.
As to `C=CC(=O)Nc1cc(C)ccc1Nc1nc(N[C@H]2CCCN(C(=O)CO)C2)ncc1Cl` [Compound I-140, (S)—N-(2-((5-chloro-2-((1-(2-hydroxyacetyl)piperidin-3-yl)amino)pyrimidin-4-yl)amino)-5-methylphenyl)acrylamide], the GI50 in experiment [1] is less than 100 nM.
For `C=CC(=O)Nc1ccccc1Nc1nc(Nc2ccnc(F)c2)ncc1C(F)(F)F` [Compound I-287, N-(2-((2-((2-Fluoropyridin-4-yl)amino)-5-(trifluoromethyl)pyrimidin-4-yl)amino)phenyl)acrylamide], the IC50 in experiment [2] was in the range of 101 to 500 nM.
Turning to `C=CC(=O)Nc1cc(C)ccc1Nc1nc(Nc2ccnc(F)c2)ncc1C(F)(F)F` [Compound I-288, N-(2-((2-((2-Fluoropyridin-4-yl)amino)-5-(trifluoromethyl)pyrimidin-4-yl)amino)-5-methylphenyl)acrylamide], in experiment [2], the IC50 lay within 501 to 999 nM.

For the origin of these results see patent US9561228B2 (Celgene Avilomics Research, Inc., priority 2013, dated 2017).
